Here are results for 18 compounds from patent US12227482B2, “Compounds and compositions for the treatment of cancer” (The Regents of the University of California, priority 2016, dated 2025).

Holding throughout (format): cell-based
Settings in all cases: 72 hours treatment, cell survival by CellTiter-Glo, 2% fetal bovine serum
On the technique in general: ATP-based viability assays read luminescence as a measure of living cells.

For one assay, the system named is LOX cells. Description: Cell viability (CellTiter-Glo ATP content) in LOX cells. The essentials: (§1)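 Cells plated at 5,000 per well in antibiotic-free RPMI with 2% FBS, treated next day in triplicate with increasing compound doses (final DMSO 0.5%) for 72 hours. Viability read as ATP content by CellTiter-Glo luminescence; percent survival relative to vehicle control set as 100%.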

For the next assay, the system named is A549 cells. Description: Cell viability (CellTiter-Glo ATP content) in A549 cells. An outline of the steps: as §1
The next assay deals with MelJuSo cells. The assay can be described thus: Cell viability (CellTiter-Glo ATP content) in MelJuSo cells. The essentials:
as §1

The IC50 is the concentration that gives 50% inhibition. Higher therefore signals a need for much substance.

For the compound `CCCCC1C(c2ccc(F)cc2)=NN(c2ccc(F)cc2F)C1(C)C(=O)NCCC(=O)OC` (stereo not drawn) [Compound 31, methyl 3-(4-butyl-1-(2,4-difluorophenyl)-3-(4-fluorophenyl)-5-methyl-4,5-dihydro-1H-pyrazole-5-carboxamido)propanoate], the IC50 was 1 to 2 µM in the assay with LOX cells (LOX, 72 h); 1 to 2 µM in the assay with A549 cells (Homo sapiens, A549, 72 h); 0.5 to 1 µM in the assay with MelJuSo cells (Homo sapiens, MEL-JUSO).

For the compound `CCCCC1C(c2ccc(F)cc2F)=NN(c2ccc(F)cc2F)C1(C)C(=O)NCCOC` (stereo not drawn) [Compound 90, 4-butyl-1,3-bis(2,4-difluorophenyl)-N-(2-methoxyethyl)-5-methyl-4,5-dihydro-1H-pyrazole-5-carboxamide], the IC50 in the assay on LOX cells (LOX, 72 h) was 0.5 to 1 µM; with A549 cells (Homo sapiens, A549, 72 h) it was 0.5 to 1 µM; in the assay with MelJuSo cells (Homo sapiens, MEL-JUSO) it was under 0.25 µM.

As for `COC(=O)CNC(=O)C1(C)C(c2ccc(Cl)o2)C(c2ccc(F)cc2F)=NN1c1ccc(F)cc1F` (stereo not drawn) [Compound 134, methyl 2-(4-(5-chlorofuran-2-yl)-1,3-bis(2,4-difluorophenyl)-5-methyl-4,5-dihydro-1H-pyrazole-5-carboxamido)acetate], the half-inhibitory concentration (IC50) in the assay with LOX cells, in the assay on A549 cells and in the assay with MelJuSo cells was under 0.25 µM in each case.

In the case of `CCCCC1C(c2ccc(F)cc2)=NN(c2ccccc2)C1(C)C(=O)NCc1ccc(OC)cc1OC` (stereo not drawn) [Compound 46, 4-butyl-N-(2,4-dimethoxybenzyl)-3-(4-fluorophenyl)-5-methyl-1-phenyl-4,5-dihydro-1H-pyrazole-5-carboxamide], the IC50 in the assay on LOX cells (LOX, 72 h) was over 2 µM; in the assay on A549 cells (Homo sapiens, A549, 72 h), over 2 µM; in the assay on MelJuSo cells (Homo sapiens, MEL-JUSO) it was over 2 µM.

For `CCCCC1C(c2ccc(F)cc2)=NN(c2ccccc2)C1(C)C(=O)NCCCN(C)C` (stereo not drawn) [Compound 49, 4-butyl-N-(3-(dimethylamino)propyl)-3-(4-fluorophenyl)-5-methyl-1-phenyl-4,5-dihydro-1H-pyrazole-5-carboxamide], the IC50 with LOX cells (LOX, 72 h) was over 2 µM; in the assay with A549 cells (Homo sapiens, A549, 72 h), over 2 µM; in the assay with MelJuSo cells (Homo sapiens, MEL-JUSO) it was over 2 µM.

As for `CCCCC1C(c2ccc(F)cc2)=NN(c2ccc(C(F)(F)F)cc2)C1(C)C(=O)NCCCC(C)(C)CO` (stereo not drawn) [Compound 28, 4-butyl-3-(4-fluorophenyl)-N-(5-hydroxy-4,4-dimethylpentyl)-5-methyl-1-(4-(trifluoromethyl)phenyl)-4,5-dihydro-1H-pyrazole-5-carboxamide], the IC50 is 1 to 2 µM in the assay with LOX cells (LOX, 72 h); over 2 µM in the assay with A549 cells (Homo sapiens, A549, 72 h); 1 to 2 µM with MelJuSo cells (Homo sapiens, MEL-JUSO).

In the case of `CCCCC1C(c2ccc(F)cc2)=NN(c2ccc(F)cc2F)C1(C)C(=O)NCC(=O)OC` (stereo not drawn) [Compound 81, methyl 2-(4-butyl-1-(2,4-difluorophenyl)-3-(4-fluorophenyl)-5-methyl-4,5-dihydro-1H-pyrazole-5-carboxamido)acetate], the IC50 in the assay with LOX cells (LOX, 72 h) was 0.5 to 1 µM; in the assay with A549 cells (Homo sapiens, A549, 72 h) it was 0.5 to 1 µM; in the assay with MelJuSo cells (Homo sapiens, MEL-JUSO), under 0.25 µM.

On to `CC1(C(=O)NCC(=O)NCCS(C)(=O)=O)C(c2cccs2)C(c2ccc(F)cc2)=NN1c1ccc(F)cc1F` (stereo not drawn) [Compound 109, 1-(2,4-difluorophenyl)-3-(4-fluorophenyl)-5-methyl-N-(2-(2-(methylsulfonyl)ethylamino)-2-oxoethyl)-4-(thiophen-2-yl)-4,5-dihydro-1H-pyrazole-5-carboxamide], for which the IC50 in the assay on LOX cells (LOX, 72 h) was over 2 µM; in the assay on A549 cells (Homo sapiens, A549, 72 h) it was over 2 µM; in the assay on MelJuSo cells (Homo sapiens, MEL-JUSO), over 2 µM.

`CCCCC1C(c2ccc(F)cc2)=NN(c2ccccc2)C1(C)C(=O)N[C@H](C)c1ccccc1` (stereo partly drawn) [Compound 43, 4-butyl-3-(4-fluorophenyl)-5-methyl-1-phenyl-N-((R)-1-phenylethyl)-4,5-dihydro-1H-pyrazole-5-carboxamide]: the IC50 in the assay on LOX cells (LOX, 72 h) is over 2 µM; in the assay on A549 cells (Homo sapiens, A549, 72 h), over 2 µM; in the assay on MelJuSo cells (Homo sapiens, MEL-JUSO) it was over 2 µM.

For the compound `CCCCC1C(c2ccc(F)cc2)=NN(c2ccc(Cl)cc2C)C1(C)C(=O)NCCCC(C)(C)CO` (stereo not drawn) [Compound 29, 4-butyl-1-(4-chloro-2-methylphenyl)-3-(4-fluorophenyl)-N-(5-hydroxy-4,4-dimethylpentyl)-5-methyl-4,5-dihydro-1H-pyrazole-5-carboxamide], the IC50 in the assay on LOX cells (LOX, 72 h) was over 2 µM; in the assay with A549 cells (Homo sapiens, A549, 72 h), over 2 µM; with MelJuSo cells (Homo sapiens, MEL-JUSO), over 2 µM.

Consider `CON(C)C(=O)CNC(=O)C1(C)C(c2cccs2)C(c2ccc(F)cc2)=NN1c1ccc(F)cc1F` (stereo not drawn) [Compound 111, 1-(2,4-difluorophenyl)-3-(4-fluorophenyl)-N-(2-(methoxy(methyl)amino)-2-oxoethyl)-5-methyl-4-(thiophen-2-yl)-4,5-dihydro-1H-pyrazole-5-carboxamide], for which the IC50 in the assay with LOX cells (LOX, 72 h) was over 2 µM; in the assay with A549 cells (Homo sapiens, A549, 72 h), over 2 µM; with MelJuSo cells (Homo sapiens, MEL-JUSO), over 2 µM.

Turning to `CCCCC1C(c2ccc(F)cc2)=NN(c2ccccc2)C1(C)C(=O)NCc1cccc(OC)c1OC` (stereo not drawn) [Compound 45, 4-butyl-N-(2,3-dimethoxybenzyl)-3-(4-fluorophenyl)-5-methyl-1-phenyl-4,5-dihydro-1H-pyrazole-5-carboxamide], the IC50 in the assay with LOX cells (LOX, 72 h) was over 2 µM; with A549 cells (Homo sapiens, A549, 72 h), over 2 µM; in the assay with MelJuSo cells (Homo sapiens, MEL-JUSO), over 2 µM.

Turning to `CCCCC1C(c2ccc(F)cc2)=NN(c2ccccc2)C1(C)C(=O)NCc1ccccc1OC` (stereo not drawn) [Compound 44, 4-butyl-3-(4-fluorophenyl)-N-(2-methoxybenzyl)-5-methyl-1-phenyl-4,5-dihydro-1H-pyrazole-5-carboxamide], the IC50 with LOX cells (LOX, 72 h) is over 2 µM; with A549 cells (Homo sapiens, A549, 72 h) it was over 2 µM; with MelJuSo cells (Homo sapiens, MEL-JUSO), over 2 µM.

On to `CCCCC1C(c2ccc(F)cc2)=NN(c2cccc(F)c2)C1(C)C(=O)NCCCOC` (stereo not drawn) [Compound 8, 4-butyl-1-(3-fluorophenyl)-3-(4-fluorophenyl)-N-(3-methoxypropyl)-5-methyl-4,5-dihydro-1H-pyrazole-5-carboxamide], for which the IC50 with LOX cells (LOX, 72 h) was over 2 µM; in the assay on A549 cells (Homo sapiens, A549, 72 h) it was over 2 µM; in the assay with MelJuSo cells (Homo sapiens, MEL-JUSO) it was 1 to 2 µM.

`CC1(O)CC(NC(=O)CNC(=O)C2(C)C(c3cccs3)C(c3ccc(F)cc3)=NN2c2ccc(F)cc2F)C1` (stereo not drawn) [Compound 110, 1-(2,4-difluorophenyl)-3-(4-fluorophenyl)-N-(2-(3-hydroxy-3-methylcyclobutylamino)-2-oxoethyl)-5-methyl-4-(thiophen-2-yl)-4,5-dihydro-1H-pyrazole-5-carboxamide]: the IC50 was over 2 µM with LOX cells (LOX, 72 h); over 2 µM with A549 cells (Homo sapiens, A549, 72 h); over 2 µM in the assay with MelJuSo cells (Homo sapiens, MEL-JUSO).

Take `CC(C)(CO)CCCNC(=O)C1(C)C(c2ccco2)C(c2ccc(F)cc2F)=NN1c1ccc(F)cc1F` (stereo not drawn) [Compound 115, 1,3-bis(2,4-difluorophenyl)-4-(furan-2-yl)-N-(5-hydroxy-4,4-dimethylpentyl)-5-methyl-4,5-dihydro-1H-pyrazole-5-carboxamide]: the IC50 in the assay on LOX cells (LOX, 72 h) is 0.5 to 1 µM; with A549 cells (Homo sapiens, A549, 72 h), 0.5 to 1 µM; in the assay on MelJuSo cells (Homo sapiens, MEL-JUSO), 0.25 to 0.5 µM.

On to `CCCCC1C(c2ccc(F)cc2)=NN(c2ccccc2)C1(C)C(=O)NCCCCCCO` (stereo not drawn) [Compound 34, 4-butyl-3-(4-fluorophenyl)-N-(6-hydroxyhexyl)-5-methyl-1-phenyl-4,5-dihydro-1H-pyrazole-5-carboxamide], for which the IC50 is 0.5 to 1 µM with LOX cells (LOX, 72 h); over 2 µM in the assay with A549 cells (Homo sapiens, A549, 72 h); 0.5 to 1 µM in the assay on MelJuSo cells (Homo sapiens, MEL-JUSO).

For `CCCCC1C(c2ccc(F)cc2)=NN(c2ccccc2)C1(C)C(=O)N[C@@H](C)c1ccccc1` (stereo partly drawn) [Compound 42, 4-butyl-3-(4-fluorophenyl)-5-methyl-1-phenyl-N-((S)-1-phenylethyl)-4,5-dihydro-1H-pyrazole-5-carboxamide], the IC50 in the assay with LOX cells (LOX, 72 h) was over 2 µM; with A549 cells (Homo sapiens, A549, 72 h), over 2 µM; with MelJuSo cells (Homo sapiens, MEL-JUSO), over 2 µM.
